In ChEMBL document CHEMBL5442219:

How the values were obtained:
Settings in all cases: Compound concentration 10 µM
[1] = target: Sodium-dependent dopamine transporter (Homo sapiens) (UniProt Q01959)
Description: PDSP Primary Binding target: SLC6A3 - Compounds are tested at 10 uM concentration, plate are incubated at room temperature in the dark for 90 minutes. Reaction are stopped by vacuum filtration onto 0.3% polyethyleneimine soaked filter mats using Filtermate harvester. Scintilation cocktail is then melted onto microwave-dried filters on a hot plate and the radio activity is counted in Microbia counter.

[2] = target: 5-hydroxytryptamine receptor 2B (Homo sapiens) (UniProt P41595)
Description: PDSP Primary Binding target: HTR2B - Compounds are tested at 10 uM concentration, plate are incubated at room temperature in the dark for 90 minutes. Reaction are stopped by vacuum filtration onto 0.3% polyethyleneimine soaked filter mats using Filtermate harvester. Scintilation cocktail is then melted onto microwave-dried filters on a hot plate and the radio activity is counted in Microbia counter.

[3] = target: Translocator protein (Homo sapiens) (UniProt P30536)
Description: PDSP Primary Binding target: TSPO - Compounds are tested at 10 uM concentration, plate are incubated at room temperature in the dark for 90 minutes. Reaction are stopped by vacuum filtration onto 0.3% polyethyleneimine soaked filter mats using Filtermate harvester. Scintilation cocktail is then melted onto microwave-dried filters on a hot plate and the radio activity is counted in Microbia counter.

[4] = target: T1, 5-hydroxytryptamine receptor 2C (Homo sapiens) (UniProt P28335)
T1 sequence (whole entry): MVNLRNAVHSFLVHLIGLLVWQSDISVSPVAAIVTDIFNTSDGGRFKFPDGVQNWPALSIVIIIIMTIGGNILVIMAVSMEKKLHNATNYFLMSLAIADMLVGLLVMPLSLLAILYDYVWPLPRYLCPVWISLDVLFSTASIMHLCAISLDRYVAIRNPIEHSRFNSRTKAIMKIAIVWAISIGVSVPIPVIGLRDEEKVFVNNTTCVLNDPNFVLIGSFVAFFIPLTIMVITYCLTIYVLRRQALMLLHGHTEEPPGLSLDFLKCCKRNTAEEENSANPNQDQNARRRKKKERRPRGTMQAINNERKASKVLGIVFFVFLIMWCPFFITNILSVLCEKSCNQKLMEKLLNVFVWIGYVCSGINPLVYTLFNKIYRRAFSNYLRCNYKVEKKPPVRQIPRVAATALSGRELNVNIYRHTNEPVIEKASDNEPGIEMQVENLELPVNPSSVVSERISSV
Description: PDSP Primary Binding target: HTR2C - Compounds are tested at 10 uM concentration, plate are incubated at room temperature in the dark for 90 minutes. Reaction are stopped by vacuum filtration onto 0.3% polyethyleneimine soaked filter mats using Filtermate harvester. Scintilation cocktail is then melted onto microwave-dried filters on a hot plate and the radio activity is counted in Microbia counter.

[5] = target: T2, Alpha-1B adrenergic receptor (Homo sapiens) (UniProt P35368)
T2 sequence (whole entry): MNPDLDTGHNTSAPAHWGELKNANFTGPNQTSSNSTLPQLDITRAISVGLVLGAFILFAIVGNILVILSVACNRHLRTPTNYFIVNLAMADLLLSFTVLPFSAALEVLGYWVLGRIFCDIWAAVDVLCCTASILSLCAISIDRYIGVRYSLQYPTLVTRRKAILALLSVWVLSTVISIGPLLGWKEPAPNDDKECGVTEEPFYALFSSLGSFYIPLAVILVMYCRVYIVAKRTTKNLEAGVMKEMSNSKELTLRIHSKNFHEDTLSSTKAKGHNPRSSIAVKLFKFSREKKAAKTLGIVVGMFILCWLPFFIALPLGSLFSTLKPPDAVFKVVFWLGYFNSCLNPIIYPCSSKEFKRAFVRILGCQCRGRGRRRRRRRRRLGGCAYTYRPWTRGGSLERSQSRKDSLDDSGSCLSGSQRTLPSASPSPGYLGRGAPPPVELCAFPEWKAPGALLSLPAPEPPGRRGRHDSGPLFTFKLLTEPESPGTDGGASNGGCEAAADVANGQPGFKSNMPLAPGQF
Description: PDSP Primary Binding target: ADRA1B - Compounds are tested at 10 uM concentration, plate are incubated at room temperature in the dark for 90 minutes. Reaction are stopped by vacuum filtration onto 0.3% polyethyleneimine soaked filter mats using Filtermate harvester. Scintilation cocktail is then melted onto microwave-dried filters on a hot plate and the radio activity is counted in Microbia counter.

[6] = target: T3, Alpha-2C adrenergic receptor (Homo sapiens) (UniProt P18825)
T3 sequence (whole entry): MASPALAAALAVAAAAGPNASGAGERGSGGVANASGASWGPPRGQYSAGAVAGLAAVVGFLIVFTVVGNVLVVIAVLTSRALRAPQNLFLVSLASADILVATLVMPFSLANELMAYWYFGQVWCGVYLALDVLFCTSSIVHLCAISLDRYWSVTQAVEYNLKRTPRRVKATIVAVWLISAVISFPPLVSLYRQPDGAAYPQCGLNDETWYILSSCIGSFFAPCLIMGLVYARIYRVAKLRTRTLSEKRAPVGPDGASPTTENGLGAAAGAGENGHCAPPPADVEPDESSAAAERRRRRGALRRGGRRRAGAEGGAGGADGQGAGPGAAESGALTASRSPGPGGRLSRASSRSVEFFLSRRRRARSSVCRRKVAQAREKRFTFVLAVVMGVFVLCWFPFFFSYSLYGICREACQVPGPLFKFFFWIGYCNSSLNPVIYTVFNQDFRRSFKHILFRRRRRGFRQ
Description: PDSP Primary Binding target: ADRA2C - Compounds are tested at 10 uM concentration, plate are incubated at room temperature in the dark for 90 minutes. Reaction are stopped by vacuum filtration onto 0.3% polyethyleneimine soaked filter mats using Filtermate harvester. Scintilation cocktail is then melted onto microwave-dried filters on a hot plate and the radio activity is counted in Microbia counter.

[7] = target: T4, 5-hydroxytryptamine receptor 1A (Homo sapiens) (UniProt P08908)
T4 sequence (whole entry): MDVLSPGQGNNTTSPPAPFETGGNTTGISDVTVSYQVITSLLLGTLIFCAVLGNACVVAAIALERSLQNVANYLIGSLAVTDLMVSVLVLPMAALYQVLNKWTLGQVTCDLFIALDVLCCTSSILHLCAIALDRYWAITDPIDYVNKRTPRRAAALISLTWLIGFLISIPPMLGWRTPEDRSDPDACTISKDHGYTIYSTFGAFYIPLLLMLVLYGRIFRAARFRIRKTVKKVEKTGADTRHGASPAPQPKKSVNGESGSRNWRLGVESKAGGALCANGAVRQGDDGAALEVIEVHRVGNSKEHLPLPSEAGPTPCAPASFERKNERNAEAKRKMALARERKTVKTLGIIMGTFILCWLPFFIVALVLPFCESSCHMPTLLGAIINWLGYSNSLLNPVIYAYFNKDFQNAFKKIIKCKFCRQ
Description: PDSP Primary Binding target: HTR1A - Compounds are tested at 10 uM concentration, plate are incubated at room temperature in the dark for 90 minutes. Reaction are stopped by vacuum filtration onto 0.3% polyethyleneimine soaked filter mats using Filtermate harvester. Scintilation cocktail is then melted onto microwave-dried filters on a hot plate and the radio activity is counted in Microbia counter.

[8] = target: Kappa-type opioid receptor (Homo sapiens) (UniProt P41145)
Description: PDSP Primary Binding target: OPRK1 - Compounds are tested at 10 uM concentration, plate are incubated at room temperature in the dark for 90 minutes. Reaction are stopped by vacuum filtration onto 0.3% polyethyleneimine soaked filter mats using Filtermate harvester. Scintilation cocktail is then melted onto microwave-dried filters on a hot plate and the radio activity is counted in Microbia counter.

[9] = target: T5, Alpha-1D adrenergic receptor (Homo sapiens) (UniProt P25100)
T5 sequence (whole entry): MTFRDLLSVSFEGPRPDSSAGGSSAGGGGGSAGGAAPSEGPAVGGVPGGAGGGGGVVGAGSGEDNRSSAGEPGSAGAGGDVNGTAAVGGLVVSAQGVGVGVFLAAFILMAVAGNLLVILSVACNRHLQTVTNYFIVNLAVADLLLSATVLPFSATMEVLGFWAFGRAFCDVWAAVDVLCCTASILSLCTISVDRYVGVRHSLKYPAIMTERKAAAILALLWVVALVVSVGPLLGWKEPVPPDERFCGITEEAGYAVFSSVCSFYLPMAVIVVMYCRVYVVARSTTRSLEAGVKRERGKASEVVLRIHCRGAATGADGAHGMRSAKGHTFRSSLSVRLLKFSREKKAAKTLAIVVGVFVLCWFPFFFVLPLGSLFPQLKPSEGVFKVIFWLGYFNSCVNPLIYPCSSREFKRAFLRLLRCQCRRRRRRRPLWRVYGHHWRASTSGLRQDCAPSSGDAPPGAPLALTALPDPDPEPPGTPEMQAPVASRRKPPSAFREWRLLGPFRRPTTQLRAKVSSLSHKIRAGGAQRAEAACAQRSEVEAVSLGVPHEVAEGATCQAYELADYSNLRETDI
Description: PDSP Primary Binding target: ADRA1D - Compounds are tested at 10 uM concentration, plate are incubated at room temperature in the dark for 90 minutes. Reaction are stopped by vacuum filtration onto 0.3% polyethyleneimine soaked filter mats using Filtermate harvester. Scintilation cocktail is then melted onto microwave-dried filters on a hot plate and the radio activity is counted in Microbia counter.

[10] = target: Sodium-dependent serotonin transporter (Homo sapiens) (UniProt P31645)
Chain of Sodium-dependent serotonin transporter (Homo sapiens) (P31645 whole entry, looked up): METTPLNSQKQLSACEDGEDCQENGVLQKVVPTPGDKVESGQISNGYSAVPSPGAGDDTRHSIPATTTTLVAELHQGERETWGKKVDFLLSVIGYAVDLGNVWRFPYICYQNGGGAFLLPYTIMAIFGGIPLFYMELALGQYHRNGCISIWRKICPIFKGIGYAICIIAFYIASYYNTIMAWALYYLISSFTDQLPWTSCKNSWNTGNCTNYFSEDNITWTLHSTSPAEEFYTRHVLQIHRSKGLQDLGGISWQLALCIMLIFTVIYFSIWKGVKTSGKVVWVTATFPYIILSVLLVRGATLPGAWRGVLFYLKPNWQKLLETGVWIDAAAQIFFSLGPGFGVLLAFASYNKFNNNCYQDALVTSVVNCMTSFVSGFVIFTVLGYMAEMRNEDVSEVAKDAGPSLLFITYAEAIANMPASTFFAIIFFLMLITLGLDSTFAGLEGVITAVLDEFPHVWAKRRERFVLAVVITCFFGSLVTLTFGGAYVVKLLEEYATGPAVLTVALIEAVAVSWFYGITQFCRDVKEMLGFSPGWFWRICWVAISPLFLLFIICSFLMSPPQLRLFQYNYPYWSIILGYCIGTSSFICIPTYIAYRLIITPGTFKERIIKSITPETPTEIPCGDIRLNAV
Description: PDSP Primary Binding target: SLC6A4 - Compounds are tested at 10 uM concentration, plate are incubated at room temperature in the dark for 90 minutes. Reaction are stopped by vacuum filtration onto 0.3% polyethyleneimine soaked filter mats using Filtermate harvester. Scintilation cocktail is then melted onto microwave-dried filters on a hot plate and the radio activity is counted in Microbia counter.

Chain of 5-hydroxytryptamine receptor 2B (Homo sapiens) (P41595 whole entry): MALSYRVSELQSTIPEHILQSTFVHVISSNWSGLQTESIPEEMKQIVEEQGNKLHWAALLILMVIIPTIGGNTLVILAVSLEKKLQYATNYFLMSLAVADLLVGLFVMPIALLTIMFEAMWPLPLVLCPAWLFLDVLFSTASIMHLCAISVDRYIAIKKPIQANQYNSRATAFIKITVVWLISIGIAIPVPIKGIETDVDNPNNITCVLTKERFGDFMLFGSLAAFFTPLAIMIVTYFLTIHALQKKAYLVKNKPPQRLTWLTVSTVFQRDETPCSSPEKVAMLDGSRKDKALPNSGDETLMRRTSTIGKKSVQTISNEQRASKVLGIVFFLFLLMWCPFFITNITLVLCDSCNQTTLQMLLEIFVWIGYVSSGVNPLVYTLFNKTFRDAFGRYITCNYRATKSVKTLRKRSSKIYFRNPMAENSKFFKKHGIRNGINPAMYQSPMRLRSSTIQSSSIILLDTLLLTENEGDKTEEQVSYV
Chain of Translocator protein (Homo sapiens) (P30536 whole entry): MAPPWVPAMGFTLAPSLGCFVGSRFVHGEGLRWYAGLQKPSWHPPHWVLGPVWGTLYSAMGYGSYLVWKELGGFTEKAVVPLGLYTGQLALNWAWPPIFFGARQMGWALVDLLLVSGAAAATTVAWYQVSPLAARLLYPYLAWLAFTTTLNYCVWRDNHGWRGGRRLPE
Chain of Kappa-type opioid receptor (Homo sapiens) (P41145 whole entry): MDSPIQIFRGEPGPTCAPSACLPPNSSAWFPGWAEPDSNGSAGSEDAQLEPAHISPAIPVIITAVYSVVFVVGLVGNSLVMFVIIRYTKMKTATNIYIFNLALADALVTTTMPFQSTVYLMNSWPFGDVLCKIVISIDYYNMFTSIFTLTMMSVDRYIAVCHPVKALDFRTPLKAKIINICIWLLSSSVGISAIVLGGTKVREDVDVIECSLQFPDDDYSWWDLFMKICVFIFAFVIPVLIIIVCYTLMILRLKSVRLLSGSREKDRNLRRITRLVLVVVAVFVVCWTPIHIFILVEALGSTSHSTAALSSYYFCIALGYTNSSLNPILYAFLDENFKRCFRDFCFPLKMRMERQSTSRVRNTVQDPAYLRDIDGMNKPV
Chain of Sodium-dependent dopamine transporter (Homo sapiens) (Q01959 whole entry): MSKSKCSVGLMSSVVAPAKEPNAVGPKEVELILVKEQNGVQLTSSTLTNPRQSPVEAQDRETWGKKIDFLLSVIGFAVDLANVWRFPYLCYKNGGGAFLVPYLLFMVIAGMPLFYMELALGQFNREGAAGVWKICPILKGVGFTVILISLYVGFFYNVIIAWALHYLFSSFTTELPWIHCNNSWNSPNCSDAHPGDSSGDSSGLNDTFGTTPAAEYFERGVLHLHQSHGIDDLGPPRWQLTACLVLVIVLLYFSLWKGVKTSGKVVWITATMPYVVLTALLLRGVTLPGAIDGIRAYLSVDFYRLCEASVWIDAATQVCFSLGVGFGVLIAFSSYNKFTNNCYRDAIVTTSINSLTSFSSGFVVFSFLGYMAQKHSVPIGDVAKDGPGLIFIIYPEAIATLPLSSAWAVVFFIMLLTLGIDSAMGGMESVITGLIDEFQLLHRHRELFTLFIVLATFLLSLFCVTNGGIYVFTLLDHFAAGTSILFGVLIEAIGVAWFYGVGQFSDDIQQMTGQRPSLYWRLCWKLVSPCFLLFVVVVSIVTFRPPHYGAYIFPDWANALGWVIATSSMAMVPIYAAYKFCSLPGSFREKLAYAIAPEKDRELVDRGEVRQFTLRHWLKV

Row | Structure (SMILES) | inhibition [1] [%] | inhibition [2] [%] | inhibition [3] [%] | inhibition [4] [%] | inhibition [5] [%] | inhibition [6] [%] | inhibition [7] [%] | inhibition [8] [%] | inhibition [9] [%] | inhibition [10] [%]
1 | CC(C)NCC(O)COc1cccc2[nH]ccc12 (stereo unspecified) | 21.3 | 39.4 | 38.5 | 7.77 | 6.47 | 1.35 | 94.1 | 46.9 | 13.6 | 
2 | Cc1c(F)cccc1NC(=O)Nc1ccc(Cl)c(S(=O)(=O)[C@H]2CCCNC2)c1O | 14.9 | 44.3 | 8.9 | -7.64 |  | -6.11 |  | -8.19 |  | -2.95
3 | Clc1cccc(Cl)c1NC1=NCCN1 | 20.8 | 93.8 | 10.8 | 55.7 | 65.3 | 84.7 | 8 | 11.2 | 66.8 | 
4 | O=C(O)C1CN(Cc2ccc(-c3nc4cc(Cc5ccccc5F)ccc4s3)c(F)c2)C1 | 30.2 | -9.46 | 22.3 | 35.8 |  | 20.6 | 11.5 | 0.93 |  | -1.28
5 | COc1ccc2cc(S(=O)(=O)N[C@H](CC(=O)N[C@H](Cc3ccc(CN4[C@H](C)CCC[C@@H]4C)cc3)C(=O)N(C)C(C)C)c3ccc4c(c3)OCO4)ccc2c1 | 36.8 | 27.5 | 0.6 | 19.7 | 2.74 | 71.8 | -7.48 | 96.7 | 15.9 | 
6 | O=C(O)CC1CCC2(CC1)CCN(c1cc(OC(F)(F)F)ccc1Cl)CC2 | 7.81 |  | 7.83 | 13.1 | 0.25 | 0.13 | -1.2 | 10.9 |  | 29.8
7 | CN(C)S(=O)(=O)c1ccc(NC(=S)N2CCC(C(O)(c3ccccc3)c3ccccc3)CC2)cc1 | 33.1 | 23.4 | 75.4 | 3.54 | -3.51 | 21.8 | 10.5 | 12.3 |  | 16
8 | COc1cc2nc(N3CCN(C(=O)c4ccco4)CC3)nc(N)c2cc1OC | 29.4 | 54.3 | 75.9 | 3.9 | 0 | 97.1 | 8.03 | 11 | 0 | 
9 | Cc1cc([C@@H](C)Nc2cccc(-c3cc(C)c(C(=O)N[C@@H](C)C(=O)O)c(C)c3)c2)ccc1Cl | 56.6 | 54.5 | 62.7 | -0.82 |  | -1.32 | 3.66 | 0.51 |  | -8.16
10 | O=C(O)Cn1c(C(=O)Nc2nc(-c3ccccc3Cl)cs2)cc2ccccc21 | 47.6 | 0.94 | 20.4 | 12.4 | -9.67 | 0.91 | -8.88 | 2.51 | -3.75 | 
11 | CN1CCC(=C2c3ccccc3CC(=O)c3sccc32)CC1 | 20.7 | 98.4 | 6.55 | 93.2 | 1.66 | 42.7 | 6.57 | 20.8 | 16.3 | 
12 | Clc1ccc(CCCOCCCN2CCCCC2)cc1 | 25.6 | 37 | -6.49 | 57 | 5.07 | 49.4 | 16.8 | 40.4 | 0.84 | 
13 | CN1C[C@H](C(=O)N[C@]2(C)O[C@@]3(O)[C@@H]4CCCN4C(=O)[C@H](Cc4ccccc4)N3C2=O)C[C@@H]2c3cccc4[nH]cc(c34)C[C@H]21 | 5.72 | 82.8 | 19 | 103 | 93.8 | 115 | 96.3 | 15.5 | 102 | 
14 | O=C(O)C1CN(Cc2ccc(OCc3ccc(Cl)c(Cl)c3)cc2)C1 | 31.9 | 10.2 | 3.35 |  |  | 10 | 13.2 | -7.92 | -5.42 | -9.84
15 | CCC(=O)NCC[C@@H]1CCc2ccc3c(c21)CCO3 | -2.02 | 72 | 27.6 | -6.58 | -0.82 | -9.25 | -7.41 | 14.2 | 10.9 | 
16 | COC(=O)[C@H]1[C@H]2C[C@H]3c4[nH]c5ccccc5c4CCN3C[C@H]2CC[C@@H]1O | 6.37 | 94.3 | 7.14 | 2.54 | 58.4 | 98.7 | 1.62 | 19 | 58.7 | 
17 | FC(F)(F)c1c(N2CCC(c3ccccc3)CC2)ccn2c(CC3CC3)nnc12 | 54.2 | -9.2 | 36.9 |  |  | 1.28 | -5.72 | 10.5 | -3.82 | 42.4
18 | CCC[C@H](Oc1cc(C)c(-n2cc(C(F)(F)F)cn2)c(C)c1)c1ccc(C(=O)NCCC(=O)O)cc1 |  |  | 28.7 | -0.8 |  | 5.06 | -2.47 | 40.7 |  | -5.66
19 | N#Cc1c(N)nc(SCc2csc(-c3ccc(Cl)cc3)n2)c(C#N)c1-c1ccc(OCCO)cc1 | 64.1 | 62.1 | 57.6 | 39.9 | 7.17 | 3.52 | -0.89 | -8.5 | 6.13 | 
